Source: patent US20170306409A1, “CANCER PATIENT SELECTION FOR ADMINISTRATION OF WNT SIGNALING INHIBITORS USING RNF43 MUTATION STATUS” (NOVARTIS AG, priority 2012, published 2017)

Columns and labels:
Assay type in all cases: cell-based, human
[1] = test system: BXPC3; experiment: foci formation assay; conditions: 1 μM LGK974
Procedure: (§1) To assay foci formation, 6,000˜12,000 cells of indicated cell lines were seeded in 6 well tissue culture plate in 2 ml growth media. After overnight culture for cell attachment, media was replaced with fresh growth media containing 1 μM LGK974 in the absence and presence of recombinant Wnt3a. For DOX-inducible β-catenin shRNA experiment, cells were treated 5 ng/ml doxycycline. When cell colonies reached desirable size, cells were fixed with 4% formalin in PBS and stained with crystal violet solution. After a few washes, plates were dried and imaged.
(§2) Identification of pancreatic cancer lines containing inactivation mutation of RNF43. Discovery of LGK974, a potent and selective inhibitor of Porcupine, offered us a unique chemical tool to systemically examine Wnt dependency in a large panel of cancer cell lines. We tested LGK974 in a large panel of pancreatic cancer cell lines using foci formation assay. Foci formation assay was utilized because it is more sensitive than routine growth assays such as CellTiter-Glo, and it is less affected by the different growth rates of various cell lines.

[2] = test system: Hs766T; experiment: foci formation assay; conditions: 1 μM LGK974
Procedure: as §1, §2

[3] = test system: HuPT3; experiment: foci formation assay; conditions: 1 μM LGK974
Procedure: as §1, §2

[4] = test system: PL45; experiment: foci formation assay; conditions: 1 μM LGK974
Procedure: as §1, §2

[5] = test system: Pan02.03; experiment: foci formation assay; conditions: 1 μM LGK974
Procedure: as §1, §2

[6] = test system: Panc08.13; experiment: foci formation assay; conditions: 1 μM LGK974
Procedure: as §1, §2

[7] = test system: STF Wnt reporter, YAPC-STF cells; experiment: SuperTOPFlash (STF) luciferase reporter assay; conditions: absence of exogenous Wnt3a, LGK974 or IWP-2
Procedure: For the luciferase reporter assay, YAPC-STF reporter cells were transfected with siRNA and treated with Wnt3a conditioned medium or compound where applicable. STF luciferase assays were performed using BrightGlo Luciferase Assay kits (Promega) according to the manufacturer's instructions.
To construct pancreatic cell lines expressing STF reporter, HEK293 cells were grown in medium recommended by ATCC supplemented with 10% FBS. Retrovirus or lentivirus was produced from HEK293 cells by standard virus packaging procedure using FuGENE 6 (Roche) transfection reagent. Pancreatic cell lines expressing STF reporter, RNF43 constructs, or DOX-inducible β-catenin shRNA were generated by viral infection and drug selection.
Depletion of RNF43 induces Dvl phosphorylation and β-catenin stabilization. […] RNF43 siRNA-induced STF activity in the absence of exogenous Wnt3a is inhibited by LGK974 and a previously known Porcupine inhibitor IWP-2. Chen B et al. (2009) Nat. Chem. Biol. 5(2):100-7. See, FIG. 3(b), showing that this activity is dependent on the expression of endogenous Wnt proteins.

[8] = test system: RNF43 mutant cells; experiment: foci formation assay with recombinant Wnt3a; conditions: 1 μM of LGK974 together with recombinant Wnt3a
Excerpt: (§3) We next characterized Wnt-dependency in pancreatic cancer cell lines.

[9] = test system: RNF43 mutant cell lines; experiment: immunoblot and qPCR assays
Procedure: (§4) For reverse transcription and quantitative PCR (qPCR), total RNA was extracted from cells or tumors using the RNeasy Plus Mini Kit (Qiagen). 1 μg of RNA were reverse transcribed with Taqman Reverse Transcription Reagents (Applied Biosystems) according to the manufacturer's instruction. Quantitative PCR was performed in 12 μl reactions consisting of 0.6 μl of 20× Taqman probe and PCR primer mix, 6 μl 2× Taqman FAST Advanced Master Mix (Applied Biosystems), and 5.4 μl diluted cDNA template. The thermocycling conditions utilized were 20 seconds at 95° C., followed by 40 cycles of 1 second at 95° C. and 20 seconds at 60° C. All experiments were performed in quadruplicates. Gene expression analysis was performed using the comparative ΔΔCT method and normalized with the housekeeping gene GUSB or 18S. The Taqman probes were purchased from Applied Biosystems.
as §3
(§5) For immunoblotting, total cell lysates were prepared by lysing cells using RIPA buffer (50 mM Tris-HCl, pH 7.4, 150 mM NaCl, 1% NP-40, 0.5% sodium deoxycholate, 0.1% SDS, 1 mM EDTA) supplemented with protease inhibitors and phosphatase inhibitors, followed by centrifugation at 14,000 rpm for 10 min at 4° C. For cytosolic β-catenin extraction, cell pellets were resuspended in hypotonic buffer (10 mM Tris-HCl, pH 7.5 and 10 mM KCl, supplemented with protease/phosphatase inhibitors) and lysed by three freeze-thaw cycles. Equal amount of proteins were resolved by SDS-PAGE, transferred to nitrocellulose membranes, and incubated with primary antibodies for overnight at 4° C. Secondary antibodies conjugated with either HRP or infrared dyes were used for signal visualization by ECL film or LI-COR Odyssey scanner, respectively.

[10] = test system: RNF43 wild-type cell lines; experiment: immunoblot and qPCR assays
Procedure: as §4, §3, §5

[11] = test system: HPAFII; experiment: soft agar assay; conditions: 1 μM LGK974
Procedure: (§6) Further, LGK974 induced the expression of differentiation marker MUC2, MUC5A/C in RNF43 mutant cells. LGK974 blocked EDU incorporation in RNF43 mutant cell lines, so Wnt inhibition in these cells leads to cell cycle arrest. LGK974-induced growth inhibition and cellular differentiation of RNF43 mutant cells are also obvious using Ki67 staining (anti-Ki67 (SP6) from Vector Laboratories, Burlingame, Calif., USA 94010) and Alcian Blue staining.
(§7) For soft agar assay, cells were suspended in 250 μl of 0.3% low melting agarose (Lonza) in DMEM containing 10% FBS, and plated onto 250 μl of solidified 0.8% agarose containing DMEM in 48-well culture plates at a density of 5,000-10,000 cells per well. 250 μl of growth medium were added on top of the cells after plate was cooled at Rt for 30 minutes. The plate was then incubated at 37° C. in a humidified atmosphere containing 5% CO2. The cells were treated with fresh growth medium containing DMSO or 1 μM LGK974 every 3-4 days. When colonies reached desirable size, photographs were taken and colonies were stained with AlamarBlue (from Invitrogen, Life Technologies, Grand Island, N.Y., USA 14072) according to the manufacturer's instruction. These experiments were repeated three times, and at least four wells were replicated each time for each condition.

[12] = test system: PK1; experiment: soft agar assay; conditions: 1 μM LGK974
Procedure: as §6, §7

[13] = test system: PaTu-8988S; experiment: soft agar assay; conditions: 1 μM LGK974
Procedure: as §6, §7

SMILES: Cc1cc(-c2ncc(CC(=O)Nc3ccc(-c4cnccn4)cn3)cc2C)ccn1 [LGK974, 2-[5-methyl-6-(2-methylpyridin-4-yl)pyridin-3-yl]-N-[5-(pyrazin-2-yl)pyridin-2-yl]acetamide]
- Growth inhibition in foci formation assay [1]: No
- Growth inhibition in foci formation assay [2]: No
- Growth inhibition in foci formation assay [3]: No
- Growth inhibition in foci formation assay [4]: not sensitive and No
- Growth inhibition in foci formation assay [5]: No
- Growth inhibition in foci formation assay [6]: No
- RNF43 siRNA-induced STF activity [7]: inhibited
- growth inhibitory effect with exogenous Wnt3a [8]: rescued
- cytosolic β-catenin ([9]; RNF43 mutant cell lines): decreased
- expression of MYC ([9]; RNF43 mutant cell lines): decreased
- expression of cyclin dependent kinase inhibitor p21 ([9]; RNF43 mutant cell lines): increased
- expression of β-catenin target gene AXIN2 ([9]; RNF43 mutant cell lines): decreased
- expression of differentiation marker MUC2, MUC5A/C ([9]; RNF43 mutant cells): induced
- cytosolic β-catenin [10]: decreased
- expression of MYC [10]: not
- expression of cyclin dependent kinase inhibitor p21 [10]: not
- expression of β-catenin target gene AXIN2 [10]: decreased
- proliferation in soft agar assay [11]: strongly inhibited
- proliferation in soft agar assay [12]: not
- proliferation in soft agar assay [13]: strongly inhibited
